Assay results reported in the NIST ThermoML archive (doi:10.1016/j.jct.2018.02.022).
± gives the expanded uncertainty stated by the source.

Test: xn = mol fraction of the nth substance listed
Settings: 298.15 K, 92.3 kPa, Liquid; for viscosity: Concentric cylinders viscometry; for speed of sound: Frequency=3 MHz, Single path-length method; for mass density: Vibrating tube method

OCCOCCOCCO [triethylene glycol] + O
Settings	mass density [kg/m3]	speed of sound [m/s]	viscosity [mPa·s]
x1 = 0.0101	1008.38 ± 3.2	1537.4 ± 1.8	–
x1 = 0.0196	1017.88 ± 3.2	1571 ± 1.8	–
x1 = 0.025	1023.1 ± 3.2	–	1.524 ± 0.21
x1 = 0.029	1027.04 ± 3.2	1600.5 ± 1.8	–
x1 = 0.0381	1034.7 ± 3.2	1625 ± 1.8	–
x1 = 0.0489	1042.58 ± 3.3	–	2.329 ± 0.33
x1 = 0.0496	1043.48 ± 3.3	1651.4 ± 1.8	–
x1 = 0.0601	1050.7 ± 3.3	1671.4 ± 1.8	–
x1 = 0.0689	1056.05 ± 3.3	1685.1 ± 1.8	–
x1 = 0.0754	1059.51 ± 3.3	–	3.456 ± 0.48
x1 = 0.0801	1062.2 ± 3.3	1699.4 ± 1.8	–
x1 = 0.0905	1067.29 ± 3.3	1709.8 ± 1.8	–
x1 = 0.0993	1071.33 ± 3.3	–	4.677 ± 0.66
x1 = 0.0996	1071.33 ± 3.3	1716.9 ± 1.8	–
x1 = 0.1479	1087.21 ± 3.3	1733.4 ± 1.8	–
x1 = 0.15	1088.51 ± 3.3	–	7.813 ± 1.1
x1 = 0.1993	1098.18 ± 3.3	–	11.2 ± 1.6
x1 = 0.2004	1097.63 ± 3.3	1729.3 ± 1.8	–
x1 = 0.2462	1103.39 ± 3.3	1718.8 ± 1.8	–
x1 = 0.2526	1104.19 ± 3.3	–	14.94 ± 2.1
x1 = 0.2998	1107.47 ± 3.3	–	18.09 ± 2.5
x1 = 0.3004	1107.79 ± 3.3	1704.4 ± 1.8	–
x1 = 0.3474	1110.41 ± 3.3	1692.1 ± 1.8	–
x1 = 0.3539	1110.13 ± 3.3	–	21.31 ± 3
x1 = 0.3948	1112.33 ± 3.3	1680.7 ± 1.9	–
x1 = 0.4009	1112.01 ± 3.3	–	23.85 ± 3.3
x1 = 0.4467	1113.88 ± 3.3	1669.6 ± 1.9	–
x1 = 0.4492	1113.7 ± 3.3	–	26.05 ± 3.6
x1 = 0.4992	1115.2 ± 3.3	–	28.01 ± 3.9
x1 = 0.5021	1115.13 ± 3.3	1659.2 ± 1.9	–
x1 = 0.548	1115.93 ± 3.3	1651.9 ± 1.9	–
x1 = 0.5484	1116.36 ± 3.3	–	29.68 ± 4.2
x1 = 0.5923	1116.59 ± 3.3	1645.4 ± 1.9	–
x1 = 0.5996	1117.17 ± 3.3	–	31.06 ± 4.4
x1 = 0.6442	1117.19 ± 3.3	1639.1 ± 1.9	–
x1 = 0.6506	1117.6 ± 3.3	–	32.21 ± 4.5
x1 = 0.701	1117.76 ± 3.3	–	33.32 ± 4.7
x1 = 0.7095	1117.81 ± 3.3	1632.3 ± 1.9	–
x1 = 0.7531	1118.17 ± 3.3	1628.1 ± 1.9	–
x1 = 0.7567	1117.85 ± 3.3	–	34.32 ± 4.8
x1 = 0.7859	1118.42 ± 3.3	1625.3 ± 2	–
x1 = 0.8035	1118.05 ± 3.3	–	34.99 ± 4.9
x1 = 0.8387	1118.75 ± 3.3	1621.5 ± 2	–
x1 = 0.8406	1118.38 ± 3.3	–	35.51 ± 5
x1 = 0.8981	1119.14 ± 3.3	–	35.95 ± 5
x1 = 0.9031	1119.13 ± 3.3	1617 ± 2	–
x1 = 0.9181	1119.2 ± 3.3	1616.2 ± 2	–
x1 = 0.9344	1119.28 ± 3.3	1615.4 ± 2	–
x1 = 0.9489	1119.68 ± 3.3	–	36.46 ± 5.1
x1 = 0.9569	1119.39 ± 3.3	1614.1 ± 2	–
x1 = 0.9782	1119.48 ± 3.3	1612.9 ± 2	–
x1 = 1	1119.59 ± 3	1611.6 ± 2	36.88 ± 5.2
